Source: patent publication US7452556B2, “Compositions for the treatment of pilosebaceous gland inflammations comprising aluminum fluoride” (Medidermis Ltd., priority 2001, dated 2008)

Key:
[1] = test system: Folliculitis inflammatory lesion
Experimental: (§1) A Folliculitis (FIGS. 3a, 3b and 3c) inflammatory lesion on the left posterior thigh a 43 of a subject was treated by AIF trihydrate at 0.5% concentration dissolved in water only. The subject applied each 3-4 h the solution as a spray. Pictures were performed in a room with artificial constant light by a Sony Mavica FD95 digital camera at a resolution of 1600×1200 pixels.
(§2) Area of inflammation was measured by image analysis techniques as follows:
(§3) Pictures (FIGS. 3a, 3b and 3c) were saved as a BMP file and loaded into Scion Imaging software v. 4.02 (NIH, USA). All three pictures were concomitantly analyzed on the same frame. First, pictures in gray scale were smoothed, manually thresholded, turned into a binary picture and the results transformed to an outline filter. The area of each outlined papule was measured by the software (n=3) and data was further plotted and statistically analyzed by student's t-test in FIG. 4 (Sigmaplot, Jandel, Java).

[2] = test system: Acne Vulgaris inflammatory lesion
Experimental: as §1, with “An Acne Vulgaris” for “A Folliculitis”, “1a, 1b” for “3a, 3b”, “1c)” for “3c)”, “right cheek” for “left posterior thigh a 43”
as §2
as §3, with “(FIGS. 1a, 1b” for “(FIGS. 3a, 3b”, “and 1c)” for “and 3c)”, “FIG. 2” for “FIG. 4”

[3] = cited from earlier work
[4] = 0.5% in water only, spray each 3-4 h, left posterior thigh, subject, FIGS. 3a-3c
[5] = 0.5% in water only, spray each 3-4 h, right cheek, subject, FIGS. 1a-1c

Compound | final resolution of the papule, time [1, 4] [h] | rapid fading of the papule, time from start of treatment [1, 4] [h] | heals the inflamed papule within (area of lesion, image analysis) ([1]; FIG. 4, n=3 area measurements, p<0.01 at 10 h and p<0.001 at 18 h) | final resolution of the papule, time [2, 5] [h] | rapid fading of the papule, time from start of treatment [2, 5] [h] | heals the inflamed papule within (area of lesion, image analysis) ([2]; FIG. 2, n=3 area measurements, p<0.01 at 14 h and at 26 h) | incidence of severe side effects ([3]; oral, Strauss J S et al, J Am Acad Dermatol, 2001) [%] | side effect: dryness ([3]; systemic retinoid) [%] | side effect: hair loss ([3]; systemic retinoid) [%] | side effect: liver function disorder ([3]; systemic retinoid) [%] | side effect: musculo-skeletal pains ([3]; systemic retinoid) [%] | side effect: photosensitivity ([3]; systemic retinoid) [%]
Aluminum fluoride [AIF trihydrate] | 18 | 10 | about 18 h | 26 | 14 | about 24 h | – | – | – | – | – | –
CC1=C(/C=C/C(C)=C/C=C/C(C)=C\C(=O)O)C(C)(C)CCC1 [isotretinoin] | – | – | – | – | – | – | 35 | 100 | 30 | 5 | 15 | 90
